Measurements: publication PMC6411159, “Development of a high-throughput fluorescent no-wash sodium influx assay” (PLoS ONE, 2019)
Like-named read-outs stand apart in the source and are kept apart here.

Tests used:
[1] = biological target: T1, hNaV1.7 (Homo sapiens, UniProt Q15858); format: cell-based
T1 construct: host or cells: HEK293
Experimental: (§1) HEK293 cells heterologously expressing human NaV1.1–1.8 (SB Drug Discovery, Glasgow, UK) were cultured in Minimum Essential Medium (MEM) (Sigma Aldrich #M5650) containing 10% v/v fetal bovine serum (FBS) and selection antibiotics as recommended by the manufacturer. SH-SY5Y human neuroblastoma cells (Victor Diaz, Goettingen, Germany) were cultured in Roswell Park Memorial Institute (RPMI) medium containing 15% v/v FBS and supplemented with L-glutamine (1 mM). […] Cells were grown in a humidified 5% CO2 incubator at 37°C, grown to 70–80% confluence, and passaged every 3–4 days using TrypLE Express (Invitrogen) or trypsin (0.25%).
(§2) Data were plotted and analyzed using GraphPad Prism, version 6.0. For concentration-response curves, a four-parameter Hill equation with variable Hill coefficient was fitted to the data. Statistical significance was defined as P < 0.05 and was determined by an unpaired t-test assuming equal variance or one-way ANOVA with Dunnett’s post-test as indicated. Data are presented as mean±SEM.

[2] = octanol-water partition of quencher dyes; format: physicochemical; conditions: 1 mM in 1:1 octanol/water, settled overnight
Experimental: Supplementary file pone.0213751.s002.pdf: S2 Fig Octanol-water partition of quencher dyes. Quenchers were added to 1:1 octanol/water volume to a 1mM concentration. Tubes were agitated and allowed to settle overnight. […] (PDF) Click here for additional data file.

[3] = absorbance spectra (UV-Vis spectrophotometry); format: physicochemical; conditions: diluted in water, NanoDrop ND1000
Experimental: Quencher dyes Allura Red AC, Amaranth, Carmine, Brilliant Black BN (Sigma Aldrich), and Ponceau 4R (pillar box red food dye) (Queen Australia) were diluted in water to the maximum concentration required to be within detection range (250–1000 μM). Their absorbance spectra were measured with a NanoDrop^TM ND1000 (ThermoFisher Scientific) UV-Vis spectrophotometer and plotted vs UV-Vis spectrum wavelength using GraphPad Prism 6.0.

[4] = tested on: adenosine receptors; set-up: method as in PMID 20086038; conditions: cited from earlier work
[5] = biological target: T2, TRPV4 (Homo sapiens, UniProt Q9HBA0); experiment: FLIPR calcium dye assay in MDA-MB-468 breast cancer cells; format: cell-based; conditions: MDA-MB-468 cells, read-out: EC50 (increase in intracellular calcium)
T2 construct: endogenous in cells
Experimental: FLIPR Calcium 4 no-wash dye (Molecular Devices) and BD Calcium Assay (BD Biosciences) kits were diluted in physiological salt solution as per manufacturers instructions. […] Raw fluorescence readings were converted to response over baseline using the analysis tool of Screenworks 3.1.1.4 (Molecular Devices) and were expressed relative to the maximum increase in fluorescence of control responses following 5 min incubation of compounds.

[6] = biological target: T3, human NaV1.7 (Homo sapiens, UniProt Q15858); experiment: automated whole-cell patch-clamp electrophysiology (QPatch-16); format: cell-based; conditions: Ponceau 4R 1 mM
T3 construct: host or cells: HEK293
Experimental: Automated whole-cell patch-clamp recordings were performed on HEK293 cells heterologously expressing human NaV1.7 (SB Drug Discovery, Glasgow, UK) using a QPatch-16 automated electrophysiology platform (Sophion Bioscience, Ballerup, Denmark) as previously described. The extracellular solution consisted of (in mM): NaCl 70, Choline chloride 70, KCl 4, CaCl2 2, MgCl2 1, HEPES 10 and glucose 10; pH 7.4; osmolarity 305 mOsm. The intracellular solution consisted of (in mM): CsF 140, EGTA/CsOH 1/5, HEPES 10 and NaCl 10; pH 7.3 with CsOH; osmolarity 320 mOsm. Ponceau 4R (1 mM) was diluted in extracellular solution and incubated for 5 min before running the voltage protocol and compared to time-matched buffer controls. Patch clamp experiments were conducted at room temperature.
I-V curves were obtained with the membrane potential held at –90 mV and a series of 500 ms step pulses that ranged from –110 to +55 mV in 5-mV increments. Conductance-voltage curves were calculated using the equation G = I/(V–Vrev), where G is conductance, I is peak current and Vrev is the reversal potential. Steady-state fast inactivation was tested using a two-pulse protocol, with 500 ms step pre-pulses (as above) preceding a 10 ms pulse of –20 mV (repetition interval 6000 ms). Both steady-state activation and inactivation curves were fitted using Boltzmann function.

[7] = biological target: T4, hNaV1.1 (Homo sapiens, UniProt P35498); experiment: no-wash sodium influx assay (ANG-2 with quencher Ponceau 4R), FLIPR; format: cell-based
T4 construct: host or cells: HEK293
Text: (§3) […]. […] Data are presented as mean±SEM.

[8] = biological target: T5, hNaV1.4 (Homo sapiens, UniProt P35499); experiment: as above; format: cell-based; conditions: hNaV1.4, response to veratridine 60 μM; read-out: IC50 (reduction of fluorescence response)
T5 construct: host or cells: HEK293
Text: as §3

[9] = biological target: T6, hNaV1.8 (Homo sapiens, UniProt Q9Y5Y9); experiment: as above; format: cell-based
T6 construct: host or cells: HEK293
Text: as §3

[10] = tested on: NaV1.1–1.8; experiment: no-wash sodium influx assay, summary over subtypes; format: cell-based, human; conditions: ANG-2 + Ponceau 4R 1 mM; stimulation with veratridine (NaV1.1–1.7) or deltamethrin (NaV1.8); read-out: IC50 range over NaV1.1–1.8
Text: as §3

[11] = biological target: hNaV1.2 (Homo sapiens, UniProt Q99250); experiment: cell-based
Experimental: as §1, §2

[12] = tested on: NaV1.1–1.7; conditions: read-out: EC50 range over NaV1.1–1.7; ANG-2 + Ponceau 4R 1 mM
Experimental: as §1, §2

[13] = tested on: NaV1.8; set-up: method as in PMID 14769548; conditions: cited from earlier work
[14] = 5 min, vs time-matched buffer control

T2 sequence (Q9HBA0 whole entry): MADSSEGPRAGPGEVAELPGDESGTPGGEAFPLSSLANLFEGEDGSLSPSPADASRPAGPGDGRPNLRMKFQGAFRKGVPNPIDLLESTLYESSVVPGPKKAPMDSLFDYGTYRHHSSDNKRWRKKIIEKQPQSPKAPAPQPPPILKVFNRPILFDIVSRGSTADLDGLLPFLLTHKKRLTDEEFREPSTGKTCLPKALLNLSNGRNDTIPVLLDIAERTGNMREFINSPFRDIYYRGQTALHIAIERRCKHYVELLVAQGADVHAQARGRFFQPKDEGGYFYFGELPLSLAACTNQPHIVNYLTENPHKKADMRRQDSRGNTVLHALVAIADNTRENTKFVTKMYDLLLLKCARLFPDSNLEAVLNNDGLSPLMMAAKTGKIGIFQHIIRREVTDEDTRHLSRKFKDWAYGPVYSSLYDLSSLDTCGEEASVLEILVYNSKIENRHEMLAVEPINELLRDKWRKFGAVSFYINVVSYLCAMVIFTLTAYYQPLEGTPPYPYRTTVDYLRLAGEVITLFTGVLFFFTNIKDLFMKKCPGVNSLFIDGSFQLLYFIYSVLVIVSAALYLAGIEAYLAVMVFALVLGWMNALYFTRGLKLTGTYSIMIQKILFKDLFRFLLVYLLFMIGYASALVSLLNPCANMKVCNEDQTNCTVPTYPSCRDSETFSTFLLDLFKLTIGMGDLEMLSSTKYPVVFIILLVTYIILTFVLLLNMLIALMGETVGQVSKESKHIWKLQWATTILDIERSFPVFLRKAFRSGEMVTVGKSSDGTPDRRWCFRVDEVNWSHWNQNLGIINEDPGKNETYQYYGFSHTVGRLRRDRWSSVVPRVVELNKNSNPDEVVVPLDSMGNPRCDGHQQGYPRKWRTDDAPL
T3 sequence (Q15858 whole entry): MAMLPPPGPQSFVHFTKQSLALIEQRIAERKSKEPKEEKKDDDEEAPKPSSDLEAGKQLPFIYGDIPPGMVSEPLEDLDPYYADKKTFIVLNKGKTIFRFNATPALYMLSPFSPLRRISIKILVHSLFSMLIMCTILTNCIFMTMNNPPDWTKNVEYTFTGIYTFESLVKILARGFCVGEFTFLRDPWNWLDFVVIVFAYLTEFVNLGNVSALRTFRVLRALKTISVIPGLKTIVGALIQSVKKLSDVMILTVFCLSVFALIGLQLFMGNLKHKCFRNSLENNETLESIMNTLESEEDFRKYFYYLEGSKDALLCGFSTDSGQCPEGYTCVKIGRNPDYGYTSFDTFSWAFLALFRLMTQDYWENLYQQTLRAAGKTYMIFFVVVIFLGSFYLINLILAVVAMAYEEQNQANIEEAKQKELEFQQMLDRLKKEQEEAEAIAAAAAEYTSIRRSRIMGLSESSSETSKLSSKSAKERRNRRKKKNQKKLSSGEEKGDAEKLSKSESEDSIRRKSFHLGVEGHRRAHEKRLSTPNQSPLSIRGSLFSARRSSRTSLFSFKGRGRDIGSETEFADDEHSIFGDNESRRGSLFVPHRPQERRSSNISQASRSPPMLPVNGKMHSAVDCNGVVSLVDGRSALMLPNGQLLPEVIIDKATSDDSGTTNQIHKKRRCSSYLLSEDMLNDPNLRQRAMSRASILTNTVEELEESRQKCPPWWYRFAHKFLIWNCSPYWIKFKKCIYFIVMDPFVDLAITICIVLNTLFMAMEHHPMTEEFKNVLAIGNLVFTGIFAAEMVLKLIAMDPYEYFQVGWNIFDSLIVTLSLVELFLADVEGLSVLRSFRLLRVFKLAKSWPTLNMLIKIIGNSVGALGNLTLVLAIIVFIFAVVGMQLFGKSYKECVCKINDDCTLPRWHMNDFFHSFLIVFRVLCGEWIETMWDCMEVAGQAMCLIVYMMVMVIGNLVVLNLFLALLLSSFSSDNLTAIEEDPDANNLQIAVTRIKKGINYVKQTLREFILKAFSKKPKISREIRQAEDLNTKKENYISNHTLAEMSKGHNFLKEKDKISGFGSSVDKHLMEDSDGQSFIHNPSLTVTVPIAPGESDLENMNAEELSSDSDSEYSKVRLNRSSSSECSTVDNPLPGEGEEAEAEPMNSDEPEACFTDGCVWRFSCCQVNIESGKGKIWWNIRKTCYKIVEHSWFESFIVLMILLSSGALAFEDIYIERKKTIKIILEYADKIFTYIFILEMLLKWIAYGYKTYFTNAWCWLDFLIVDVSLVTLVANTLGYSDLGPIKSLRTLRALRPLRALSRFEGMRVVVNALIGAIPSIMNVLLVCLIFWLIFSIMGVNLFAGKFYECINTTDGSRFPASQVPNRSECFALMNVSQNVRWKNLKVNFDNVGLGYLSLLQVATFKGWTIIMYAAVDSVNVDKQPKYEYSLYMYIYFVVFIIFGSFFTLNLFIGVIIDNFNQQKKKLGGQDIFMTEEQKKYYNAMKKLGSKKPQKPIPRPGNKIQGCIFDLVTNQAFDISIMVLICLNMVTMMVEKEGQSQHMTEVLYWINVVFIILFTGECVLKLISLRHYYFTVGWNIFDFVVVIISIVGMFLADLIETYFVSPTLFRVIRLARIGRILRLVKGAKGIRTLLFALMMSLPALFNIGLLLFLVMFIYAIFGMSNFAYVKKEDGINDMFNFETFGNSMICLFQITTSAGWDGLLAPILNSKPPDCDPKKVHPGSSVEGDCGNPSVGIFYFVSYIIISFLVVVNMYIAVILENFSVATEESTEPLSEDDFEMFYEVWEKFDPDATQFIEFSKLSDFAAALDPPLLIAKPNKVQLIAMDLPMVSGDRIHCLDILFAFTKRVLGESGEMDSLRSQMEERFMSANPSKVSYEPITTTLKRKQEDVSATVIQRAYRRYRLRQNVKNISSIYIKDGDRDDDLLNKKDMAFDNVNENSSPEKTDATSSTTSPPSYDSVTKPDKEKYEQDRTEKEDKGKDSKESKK
T6 sequence (Q9Y5Y9 whole entry): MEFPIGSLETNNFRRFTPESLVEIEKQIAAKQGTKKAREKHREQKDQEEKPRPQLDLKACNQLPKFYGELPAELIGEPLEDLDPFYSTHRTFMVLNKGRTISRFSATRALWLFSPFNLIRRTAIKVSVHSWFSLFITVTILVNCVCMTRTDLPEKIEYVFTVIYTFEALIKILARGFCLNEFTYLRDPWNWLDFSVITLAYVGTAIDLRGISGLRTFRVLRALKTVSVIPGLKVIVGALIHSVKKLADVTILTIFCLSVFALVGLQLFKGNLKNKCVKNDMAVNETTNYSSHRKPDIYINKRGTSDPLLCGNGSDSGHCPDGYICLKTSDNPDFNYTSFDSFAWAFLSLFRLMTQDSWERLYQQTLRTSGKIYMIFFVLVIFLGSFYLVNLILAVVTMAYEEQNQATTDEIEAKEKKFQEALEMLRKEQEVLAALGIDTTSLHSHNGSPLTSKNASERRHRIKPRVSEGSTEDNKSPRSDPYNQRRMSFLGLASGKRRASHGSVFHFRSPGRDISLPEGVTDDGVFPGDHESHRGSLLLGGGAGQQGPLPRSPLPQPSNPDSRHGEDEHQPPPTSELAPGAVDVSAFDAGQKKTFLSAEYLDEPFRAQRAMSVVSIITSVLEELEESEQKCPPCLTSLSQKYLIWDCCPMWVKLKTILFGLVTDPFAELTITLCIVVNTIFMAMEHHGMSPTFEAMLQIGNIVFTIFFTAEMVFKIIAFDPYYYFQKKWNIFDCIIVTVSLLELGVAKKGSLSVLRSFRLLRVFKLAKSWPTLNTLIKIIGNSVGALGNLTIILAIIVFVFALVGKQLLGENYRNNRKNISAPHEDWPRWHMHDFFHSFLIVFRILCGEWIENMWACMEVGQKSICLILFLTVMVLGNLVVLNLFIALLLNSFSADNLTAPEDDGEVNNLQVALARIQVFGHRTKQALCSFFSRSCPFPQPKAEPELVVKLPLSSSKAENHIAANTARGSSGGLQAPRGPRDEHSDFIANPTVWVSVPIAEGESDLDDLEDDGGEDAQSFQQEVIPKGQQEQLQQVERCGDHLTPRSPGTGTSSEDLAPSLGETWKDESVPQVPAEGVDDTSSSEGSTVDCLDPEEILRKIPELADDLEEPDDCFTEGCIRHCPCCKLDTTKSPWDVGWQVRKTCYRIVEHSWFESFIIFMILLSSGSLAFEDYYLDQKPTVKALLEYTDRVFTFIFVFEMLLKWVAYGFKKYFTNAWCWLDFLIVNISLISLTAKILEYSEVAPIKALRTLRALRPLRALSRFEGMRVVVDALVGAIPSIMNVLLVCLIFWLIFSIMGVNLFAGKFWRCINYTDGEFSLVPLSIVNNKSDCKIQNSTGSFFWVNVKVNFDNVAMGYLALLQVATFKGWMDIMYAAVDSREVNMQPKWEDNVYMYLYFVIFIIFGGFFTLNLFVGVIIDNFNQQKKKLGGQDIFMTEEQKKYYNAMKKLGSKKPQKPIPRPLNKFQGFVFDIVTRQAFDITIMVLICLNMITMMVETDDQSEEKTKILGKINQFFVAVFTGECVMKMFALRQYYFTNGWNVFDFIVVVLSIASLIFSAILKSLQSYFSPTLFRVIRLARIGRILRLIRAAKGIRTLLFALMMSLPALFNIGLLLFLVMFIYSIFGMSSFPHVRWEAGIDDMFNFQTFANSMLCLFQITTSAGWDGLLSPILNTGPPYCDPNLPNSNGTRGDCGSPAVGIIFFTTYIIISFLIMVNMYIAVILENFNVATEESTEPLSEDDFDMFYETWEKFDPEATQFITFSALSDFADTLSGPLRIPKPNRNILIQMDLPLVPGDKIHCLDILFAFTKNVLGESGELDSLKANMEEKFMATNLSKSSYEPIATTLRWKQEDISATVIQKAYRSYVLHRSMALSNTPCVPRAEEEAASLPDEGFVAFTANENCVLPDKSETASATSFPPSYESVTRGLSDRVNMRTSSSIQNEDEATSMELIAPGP
T1 sequence (Q15858 whole entry): as the sequence (Q15858 whole entry) above

## Cc1c(C(=O)O)c(O)cc2c1C(=O)c1c(O)c(C3O[C@H](CO)[C@@H](O)[C@H](O)[C@H]3O)c(O)c(O)c1C2=O (stereo in doubt) [Carmine]
[1]
  veratridine-induced fluorescence signal in presence of quencher: comparatively low signal
[2]
  octanol-water partition: partitioned into the octanol phase

## COc1cc(S(=O)(=O)[O-])c(C)cc1N=Nc1c(O)ccc2cc(S(=O)(=O)[O-])ccc12.[Na+].[Na+] [Allura Red, Allura Red AC]
[2]
  octanol-water partition: partitioned into the octanol phase

## CC(=O)Nc1ccc(S(=O)(=O)[O-])c2cc(S(=O)(=O)[O-])c(N=Nc3ccc(N=Nc4ccc(S(=O)(=O)[O-])cc4)c4ccc(S(=O)(=O)[O-])cc34)c(O)c12.[Na+].[Na+].[Na+].[Na+] [Brilliant Black BN]
[3]
  peak absorption (λ max): 575 nm
[4]
  action on adenosine receptors: allosteric modulator

## CC(C)C[C@H](NC(=O)c1cc2ccccc2s1)C(=O)N1CCN(C(=O)[C@H](CO)NS(=O)(=O)c2ccc(Cl)cc2Cl)CC1 [GSK1016790A]
[5]; BD Calcium Assay Kit
  EC50: 0.04 µM
[5]; FLIPR Calcium 4 no-wash dye
  EC50: 0.08 µM
[5]; fluo-4 with Allura Red 1 mM
  EC50: 0.064 µM
[5]; fluo-4 with Amaranth 1 mM
  EC50: 0.07 µM
[5]; fluo-4 with Brilliant Black BN 1 mM
  EC50: 0.072 µM
[5]; fluo-4 with Ponceau 4R 1 mM
  EC50: 0.074 µM
[5]; fluo-4 with wash
  EC50: 0.047 µM

## O=S(=O)([O-])c1cc(S(=O)(=O)[O-])c2c(N=Nc3ccc(S(=O)(=O)[O-])c4ccccc34)c(O)ccc2c1.[Na+].[Na+].[Na+] [Ponceau 4R]
[6]
  effect on activation or inactivation kinetics of NaV1.7: no effect
  shift in the I-V curve or effect on current size: did not cause a shift in the I-V curve or affect the current size
[6]; [14]
  shift in voltage-dependence of activation (V1/2 activation Δ): –0.96 mV
  shift in voltage-dependence of steady-state fast inactivation (V1/2 inactivation Δ): –1.46 mV

## CCCCNc1ccc(C(=O)OCCN(C)C)cc1 [tetracaine]
[7]; hNaV1.1, response to veratridine 60 μM, read-out: IC50 (reduction of fluorescence response)
  IC50: 52 µM
[8]
  IC50: 13 µM
[9]; Tetracaine pIC50, hNaV1.8, 5 min pre-incubation, then deltamethrin 150 μM
  IC50: 6.61 µM
[9]; hNaV1.8, response to deltamethrin 150 μM, read-out: IC50 (reduction of fluorescence response)
  IC50: 6 µM
[10]
  IC50: 6 to 66 µM

## COc1ccc(C(=O)O[C@H]2CC[C@@]3(C)[C@@H]4CC[C@H]5[C@]6(O)C[C@H](O)[C@@]7(O)[C@@H](CN8C[C@@H](C)CC[C@H]8[C@@]7(C)O)[C@]6(O)C[C@@]53O[C@]24O)cc1OC [veratridine]
[7]; EC50 (increase in fluorescence), hNaV1.1, ANG-2 + Ponceau 4R
  EC50: 21 µM
[7]; Veratridine pEC50, HEK293 hNaV1.1, ANG-2 + Ponceau 4R 1 mM, AUC 5 min
  EC50: 21.9 µM
[11]; EC50 (increase in fluorescence), hNaV1.2, ANG-2 + Ponceau 4R
  EC50: 16 µM
[11]; Veratridine pEC50, HEK293 hNaV1.2, ANG-2 + Ponceau 4R 1 mM, AUC 5 min
  EC50: 16.6 µM
[12]
  EC50: 10 to 29 µM
[13]
  effect on NaV1.8 in fluorescence-based assays: little effect
